Data from patent publication US10259807B2, “1-(piperazin-1-yl)-2-([1,2,4]triazol-1-yl)-ethanone derivatives” (Idorsia Pharmaceuticals Ltd., priority 2013, dated 2019).

Tests used:
human CXCR3A = molecular target: T1, human CXCR3A (Homo sapiens, UniProt P49682); assay: FLIPR assay (CXCL10-induced calcium signal in CHO-K1 cells); format: cell-based; conditions: CHO-K1 cells expressing human CXCR3A coupled to Galpha(16); CXCL10 agonist 20 nM; mean values
T1 construct: expressed in transfected cells; host or cells: CHO-K1
T1 sequence (P49682 1-368): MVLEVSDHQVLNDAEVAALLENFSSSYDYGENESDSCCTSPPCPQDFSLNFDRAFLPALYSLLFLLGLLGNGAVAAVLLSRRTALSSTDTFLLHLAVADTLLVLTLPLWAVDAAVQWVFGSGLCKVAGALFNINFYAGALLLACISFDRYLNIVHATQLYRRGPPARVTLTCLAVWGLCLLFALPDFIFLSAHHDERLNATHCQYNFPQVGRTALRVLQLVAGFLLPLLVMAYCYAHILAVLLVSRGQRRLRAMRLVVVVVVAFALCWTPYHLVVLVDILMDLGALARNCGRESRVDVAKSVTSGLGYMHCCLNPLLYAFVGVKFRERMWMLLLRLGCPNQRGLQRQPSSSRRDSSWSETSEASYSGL
Method: A) FLIPR assay: The bioactivity of compounds is tested in a fluorometric imaging plate reader (FLIPR: Molecular Devices) using engineered CHO-K1 cells expressing the human CXCR3A (GenBank: AY242128) coupled to a G protein (Galpha(16)). Cells are plated the day prior to bioassay in F12 medium supplemented with 10% FBS and G418 and hygromycin antibiotics to maintain recombinant selection. […] Cells are washed free of excess dye and 60 microliter of wash buffer is added. Stock solutions of test compounds are made up at a concentration of 10 mM in DMSO, and serially diluted in dilution buffer to concentrations required for inhibition dose response curves. After a 10 minute incubation period at 37° C., 10 microliters of each compound dilution are transferred from a compound plate to the plate containing the recombinant cells in the FLIPR instrument according to the manufacturer's instructions. Following basal readings, 10 microliter CXCL10 agonist at a concentration of 20 nM (from Peprotech) is added, again using the FLIPR instrument. Changes in fluorescence are monitored before and after addition of the test compounds. Emission peak values above base level after CXCL10 addition are exported after base line subtraction. The program XLfit is used to fit the data to a single site dose response curve and to calculate IC50 values. The calculated IC50 values may fluctuate depending on the daily assay performance. Fluctuations of this kind are known to those skilled in the art.

[1] = Human liver microsome assay (metabolic stability); format: in vitro ADME; conditions: human liver microsomes 0.5 mg/mL, compound 1 μM, 37° C., pH 7.4, NADPH-regenerating system
Method: Incubation with human liver microsomes was performed to assess metabolic stability at a single compound concentration of 1 μM. A 1 μL-aliquot of the compounds stock solutions in DMSO were added to 899 μL of 100 mM phosphate buffer (pH 7.4) containing the liver microsomes at a concentration of 0.5 mg/mL and the mixture was incubated at 37° C. in an Eppendorf thermomixer at 450 rpm. The reaction was initiated by addition of 100 μL of NADPH-regenerating system containing the glucose-6-phosphate dehydrogenase and at the pre-defined time points, 0, 1.5, 2.5, 5, 10, and 15 min, 100 μL of the incubation was transferred in 100 μL of ice-cold methanol to stop the reaction. Samples were centrifuged at 3220 g for 20 min at 4° C. and the supernatants were submitted to LC/MS-MS analysis.
Calculation of intrinsic clearance CLint:
Natural logarithm of remaining amount of compound was plotted as function of time and the slope of the line determined.
Elimination rate constant (k)=−slope
V=volume of incubation/amount of protein

hERG K channel = molecular target: T2, hERG K channel (Homo sapiens, UniProt Q12809); assay: hERG Q-Patch assay; format: cell-based; conditions: CHO cells expressing hERG, K+ tail current 3 min after application, mean of two or three experiments
T2 construct: host or cells: CHO
Method: B) hERG Q-Patch assay: Compounds are evaluated for block of the hERG K channel using CHO cells stably expressing the hERG gene (accession number U04270, bSys, Witterswil. Switzerland) and the Patch robotic platform (Sophion, Ballerup, Denmark) in single-cell mode at room temperature. […] When the cells are ˜80% confluent (every 2-3 days), they are either split for further culture or used for electrophysiology. […] Cells are kept in suspension medium at 32-35° C. in the QPatch robot until use, at which time aliquots are transferred to the extracellular solution (in mM: NaCl 150; KCl 4; CaCl2 1.2; MgCl2 1; HEPES 10; pH 7.4 with NaOH) containing 0.3% v/v DMSO and applied to the test plates. K^+ currents are measured with the patch-voltage-clamp technique in the whole-cell configuration with the internal solution (in […]: KCl, 140; NaCl, 10; MgCl2, 1; HEPES, 10; EGTA, 5; pH=7.2 with KOH). […] K^+tail currents are produced from a holding voltage of −80 mV by a 500-ms depolarization to +20 mV followed by a 500-ms repolarization to −40 mV; tail current amplitudes are measured at the end of the repolarization to −40 mV. The pulse pattern is repeated every 10 sec during the experiment, baseline K^+ current is measured after 3 min in extracellular solution, test-solution containing compound is then applied, and K^+ current in presence of compound is measured 3 minutes after application to the cells.

[2] = Determination of pharmacokinetic parameters in rats; conditions: male, Wistar (RccHan:WIST), rat, plasma, po, 2 mg/kg
Method: Male Wistar rats (RccHan:WIST) were obtained from Harlan (Venray, The Netherlands) and used for pharmacokinetic experiments after an acclimatization period of at least 7 days. The body weight of the rats was about 250 g at the day of the experiment. Two days prior to dosing, rats were anesthetized for surgery via inhalation of isoflurane (4-5% for induction and 1.5-3% for maintenance) in oxygen. Buprenorphine was dosed as analgesic at 0.03 mg/kg sc half an hour before surgery. Under aseptic conditions, catheters were implanted into jugular vein for dosing and carotid artery to allow for multiple serial blood sampling. […] Compounds were administered intravenously via a 5-minute infusion at doses of 0.5 or 1 mg/kg body weight formulated as solutions in water prepared by pH adjustment or as an aqueous mixed micellar vehicle based on phospholipids and bile acids (mixed micelles). […] Oral formulations were solutions in water prepared by pH adjustment or dispersions prepared by addition of a DMSO stock solution of the compounds to methylcellulose (0.5% w/v) in water. […] Blood samples were centrifuged at 3000 g (10 minutes, 4° C.) and plasma was submitted to LC-MS/MS analysis.

T2 sequence (Q12809 whole entry): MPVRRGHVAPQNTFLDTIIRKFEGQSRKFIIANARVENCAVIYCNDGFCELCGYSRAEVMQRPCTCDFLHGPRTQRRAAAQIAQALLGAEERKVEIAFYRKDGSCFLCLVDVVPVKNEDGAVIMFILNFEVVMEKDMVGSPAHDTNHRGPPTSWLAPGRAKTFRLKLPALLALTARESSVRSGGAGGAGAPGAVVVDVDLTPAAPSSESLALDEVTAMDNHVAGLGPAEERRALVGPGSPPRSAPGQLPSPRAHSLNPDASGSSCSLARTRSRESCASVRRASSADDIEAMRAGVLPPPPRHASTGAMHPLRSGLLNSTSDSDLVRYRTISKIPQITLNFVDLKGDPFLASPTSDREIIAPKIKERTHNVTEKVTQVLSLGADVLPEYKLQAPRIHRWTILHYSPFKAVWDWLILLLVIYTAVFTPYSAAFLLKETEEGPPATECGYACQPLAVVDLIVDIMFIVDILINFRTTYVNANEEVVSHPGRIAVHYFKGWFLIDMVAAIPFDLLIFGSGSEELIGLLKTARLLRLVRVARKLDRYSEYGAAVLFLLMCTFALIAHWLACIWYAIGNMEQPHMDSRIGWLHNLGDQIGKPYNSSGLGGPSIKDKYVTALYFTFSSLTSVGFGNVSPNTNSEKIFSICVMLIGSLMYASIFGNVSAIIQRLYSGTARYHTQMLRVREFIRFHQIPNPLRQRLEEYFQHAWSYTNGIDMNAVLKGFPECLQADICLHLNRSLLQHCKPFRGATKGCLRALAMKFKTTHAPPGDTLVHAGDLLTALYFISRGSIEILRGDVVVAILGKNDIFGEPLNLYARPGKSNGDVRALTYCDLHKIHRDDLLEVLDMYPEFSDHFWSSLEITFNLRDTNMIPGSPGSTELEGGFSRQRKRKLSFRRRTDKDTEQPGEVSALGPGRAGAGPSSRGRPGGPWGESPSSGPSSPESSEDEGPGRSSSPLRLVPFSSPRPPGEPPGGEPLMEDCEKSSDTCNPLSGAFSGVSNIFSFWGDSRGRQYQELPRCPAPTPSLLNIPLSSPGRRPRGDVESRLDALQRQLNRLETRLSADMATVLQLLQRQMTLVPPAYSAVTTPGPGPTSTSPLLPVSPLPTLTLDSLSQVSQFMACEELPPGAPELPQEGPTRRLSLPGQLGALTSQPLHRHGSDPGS

Row | Compound | IC50 (human CXCR3A) [nM] | microsomal CLint at 1 µM [1] [µL/min/mg] | % block (hERG K channel; concentration 300 nM) [%] | % block (hERG K channel; concentration 3000 nM) [%] | AUC [2] [ng·h/mL]
1 | Cc1nc(C)n(CC(=O)N2CCN(c3sc(C(F)(F)F)nc3-c3ccc(C(F)(F)F)nc3)C[C@H]2C)n1 [Example 49, 2-(3,5-Dimethyl-[1,2,4]triazol-1-yl)-1-{(R)-2-methyl-4-[2-trifluoromethyl-4-(6-trifluoromethyl-pyridin-3-yl)-thiazol-5-yl]-piperazin-1-yl}-ethanone] | 3.6 | 4 | – | – | –
2 | CC[C@@H]1CN(c2sc(C(F)(F)F)nc2-c2cnc(C(F)(F)F)nc2)CCN1C(=O)Cn1nc(C)nc1C [Example 51, 2-(3,5-Dimethyl-[1,2,4]triazol-1-yl)-1-{(R)-2-ethyl-4-[2-trifluoromethyl-4-(2-trifluoromethyl-pyrimidin-5-yl)-thiazol-5-yl]-piperazin-1-yl}-ethanone] | 0.6 | 1 | 6 | 18 | –
3 | CCCc1ncc(-c2nc(C(F)(F)F)sc2N2CCN(C(=O)Cn3nc(C)nc3C)[C@H](C)C2)cn1 [Example 22, 2-(3,5-Dimethyl-[1,2,4]triazol-1-yl)-1-{(R)-2-methyl-4-[4-(2-propyl-pyrimidin-5-yl)-2-trifluoromethyl-thiazol-5-yl]-piperazin-1-yl}-ethanone] | 2.9 | 78 | 1 | 7 | –
4 | Cc1nc(C)n(CC(=O)N2CCN(c3sc(C(F)(F)F)nc3-c3cnc(OC(C)C)nc3)C[C@H]2C)n1 [Example 27, 2-(3,5-Dimethyl-[1,2,4]triazol-1-yl)-1-{(R)-4-[4-(2-isopropoxy-pyrimidin-5-yl)-2-trifluoromethyl-thiazol-5-yl]-2-methyl-piperazin-1-yl}-ethanone] | 3.5 | 13 | 2 | 6 | –
5 | COc1ncc(-c2cc(C(F)(F)F)ccc2N2CCN(C(=O)Cn3nc(C)cc3C)CC2)cn1 [reference compound 1, 2-(3,5-Dimethyl-pyrazol-1-yl)-1-{4-[2-(2-methoxy-pyrimidin-5-yl)-4-trifluoromethyl-phenyl]piperazin-1-yl}-ethanone] | – | – | – | – | 273
6 | Cc1nc(C)n(CC(=O)N2CCN(c3sc(C(F)(F)F)nc3-c3cnc(C(F)(F)F)nc3)C[C@@H]2C)n1 [Example 50, 2-(3,5-Dimethyl-[1,2,4]triazol-1-yl)-1-{(S)-2-methyl-4-[2-trifluoromethyl-4-(2-trifluoromethyl-pyrimidin-5-yl)-thiazol-5-yl]-piperazin-1-yl}-ethanone] | – | 11 | – | – | –
7 | Cc1nc(C)n(CC(=O)N2CCN(c3sc(C(F)(F)F)nc3-c3cnc(C4CC4)nc3)C[C@H]2C)n1 [Example 33, 1-{(R)-4-[4-(2-Cyclopropyl-pyrimidin-5-yl)-2-trifluoromethyl-thiazol-5-yl]-2-methyl-piperazin-1-yl}-2-(3,5-dimethyl-[1,2,4]triazol-1-yl)-ethanone] | 2.9 | 7 | 4 | 17 | –
8 | Cc1nc(C)n(CC(=O)N2CCN(c3sc(C(F)(F)F)nc3-c3cnc(OC4CCC4)nc3)C[C@H]2C)n1 [Example 38, 1-{(R)-4-[4-(2-Cyclobutoxy-pyrimidin-5-yl)-2-trifluoromethyl-thiazol-5-yl]-2-methyl-piperazin-1-yl}-2-(3,5-dimethyl-[1,2,4]triazol-1-yl)-ethanone] | 2.3 | 51 | 5 | 11 | –
9 | CCOc1ncc(-c2nc(C(F)(F)F)sc2N2CCN(C(=O)Cn3nc(C)nc3C)[C@H](C)C2)cn1 [Example 20, 2-(3,5-Dimethyl-[1,2,4]triazol-1-yl)-1-{(R)-4-[4-(2-ethoxy-pyrimidin-5-yl)-2-trifluoromethyl-thiazol-5-yl]-2-methyl-piperazin-1-yl}-ethanone] | 5.7 | 8 | 9 | 20 | –
10 | Cc1nc(CO)n(CC(=O)N2CCN(c3sc(C(F)(F)F)nc3-c3cnc(C(F)(F)F)nc3)C[C@H]2C)n1 [Example 45, 2-(5-Hydroxymethyl-3-methyl-[1,2,4]triazol-1-yl)-1-{(R)-2-methyl-4-[2-trifluoromethyl-4-(2-trifluoromethyl-pyrimidin-5-yl)-thiazol-5-yl]-piperazin-1-yl}-ethanone] | 15 | 14 | 0 | 1 | –
11 | CCOc1ncc(-c2nc(C(F)(F)F)sc2N2CCN(C(=O)Cn3nc(CC)nc3C)[C@H](C)C2)cn1 (single isomer, unassigned) [Example 18] | 3.1 | 60 | 3 | 13 | –
12 | Cc1nc(C)n(CC(=O)N2CCN(c3sc(C(F)(F)F)nc3-c3cnc(N4CCCC4)nc3)C[C@H]2C)n1 [Example 36, 2-(3,5-Dimethyl-[1,2,4]triazol-1-yl)-1-{(R)-2-methyl-4-[4-(2-pyrrolidin-1-yl-pyrimidin-5-yl)-2-trifluoromethyl-thiazol-5-yl]-piperazin-1-yl}-ethanone] | 1.6 | 338 | 7 | 15 | –
13 | CCOc1ccc(-c2nc(C(F)(F)F)sc2N2CCN(C(=O)Cn3nc(C)nc3C)[C@H](C)C2)cn1 [Example 15, 2-(3,5-Dimethyl-[1,2,4]triazol-1-yl)-1-{(R)-4-[4-(6-ethoxy-pyridin-3-yl)-2-trifluoromethyl-thiazol-5-yl]-2-methyl-piperazin-1-yl}-ethanone] | 9.2 | 66 | 1 | 13 | –
14 | Cc1nc(C)n(CC(=O)N2CCN(c3sc(C(F)(F)F)nc3-c3ccc(Cl)cc3)C[C@H]2C)n1 [Example 7, 1-{(R)-4-[4-(4-Chloro-phenyl)-2-trifluoromethyl-thiazol-5-yl]-2-methyl-piperazin-1-yl}-2-(3,5-dimethyl-[1,2,4]triazol-1-yl)-ethanone] | 9.3 | 7 | 34 | 88 | –
15 | Cc1nc(CO)nn1CC(=O)N1CCN(c2sc(C(F)(F)F)nc2-c2cnc(C(F)(F)F)nc2)C[C@H]1C [Example 44, 2-(3-Hydroxymethyl-5-methyl-[1,2,4]triazol-1-yl)-1-{(R)-2-methyl-4-[2-trifluoromethyl-4-(2-trifluoromethyl-pyrimidin-5-yl)-thiazol-5-yl]-piperazin-1-yl}-ethanone] | 5.1 | – | −3 | −6 | –
